Reference: patent US20080279848A1, “Methods of treating lupus using CD4 antibodies” (GENENTECH, INC., priority 2006, published 2008)

Columns and labels:
[1] = system: NZBxW F1 mice (spontaneous lupus-like kidney disease); assay: NZBxW F1 preclinical model of SLE, treatment initiated at 9 months of age (severe disease), CD4 antibody and MMF
Protocol: (§1) Proteinuria was measured using a Clinitek® 50 Urine Chemistry Analyzer (Bayer Corporation, Elkhart, Ind., USA). A drop of freshly collected urine was placed on a reagent strip (Multistix® 10 SG, Bayer), and the strip was immediately inserted into the analyzer after removal of excess urine by blotting with a clean gauze sponge.
Numbers of activated CD4+ T cells found in spleen were determined by flow cytometry as follows. Whole spleens were harvested and crushed into single cell suspensions, which were then red blood cell lysed using EL buffer (erythrocyte lysis buffer, from Qiagen, Valencia, Calif., catalog number 79217), passed through a 70 micron cell strainer, and then resuspended for cell counts. A fixed volume of each cell suspension was mixed with a fluorescent bead (Polysciences, Inc., catalog number 18862) solution of known concentration. The mixture was then run on a FACScan™ flow cytometer from BD Biosciences (Franklin Lakes, N.J.). By collecting a fixed number of beads for each mixture, the total number of live cells could be calculated and subsequently used to determine total numbers of cell subpopulations for the spleen of each mouse after further FACS analysis.
Treatment of NZB×NZW mice was initiated at 9 months of age. Mice were screened for proteinuria and randomized into groups based on their proteinuria scores. […] Mice were monitored for changes in proteinuria (urinalysis was performed as described above in Example 1), disease progression, and survival. […] MMF was given IP at either 25 mg/kg daily or 50 mg/kg daily (alone or in combination with the CD4 antibody).
CD4^+ T cell and B2 B cell numbers were determined by flow cytometry basically as described above, using antibodies to identify the various cell populations and then using the percentage of each population represented (of total lymphocytes) multiplied by the total number of lymphocytes to determine the number of each population. B2 cells (the majority of B cells) were identified by positive staining for B220 (CD45) and CD38. Anti-B220/CD45 and anti-CD38 were from BD Pharmingen.
Comparisons were performed using Dunnett's method with the control antibody treated group as the reference control group (designated in bold), and only p values for groups that achieve statistical significance vs. the reference control are designated on the graph.

[2] = system: NZBxW F1 mice (spontaneous lupus-like kidney disease); assay: NZBxW F1 preclinical model of SLE, treatment initiated at 8 months of age (moderate-severe disease); format: in vivo, mouse; details: over time after treatment; CTX 50 mg/kg IP every 10 days; FIG. 7A
Text: The control antibody was an irrelevant mouse IgG1 antibody (a mouse antibody was used for the control since an irrelevant rat antibody would elicit an immune response against itself, influencing the course of disease; the rat anti-CD4 antibody prevents such a response to itself).
At 8 months of age, NZB×NZW mice were screened for proteinuria and randomized into 5 groups based on their proteinuria scores. At this age, disease is considered to be moderate-severe. At the onset of the experiment, each group of 19 mice was composed of the following distribution of protein concentrations in the urine: 32% at >300 mg/dl; 24% at 100-300 mg/dl; and 44% at 30-100 mg/dl. […] Mice were monitored for changes in urine protein concentration (e.g., proteinuria), Blood Urea Nitrogen (BUN), and survival.
as §1
Blood urea nitrogen was measured using a Cobas Integra® 400 chemistry analyzer (Roche Diagnostics, Basel, Switzerland) and urea detection reagent (also supplied by Roche Diagnostics) according to the manufacturer's instructions. […]

[3] = system: SJL/J mice with PLP-139-151 peptide induced EAE; assay: Relapsing and remitting EAE induced by PLP peptide in SJL/J mice (model of MS); format: in vivo, mouse; details: treatment initiated at day 14 (peak of disease), CD4 antibody = murinized YTS177; FIG. 12
Text: Experimental autoimmune encephalomyelitis (EAE) is an inflammatory condition of the central nervous system (CNS) with similarities to MS; in both diseases, demyelination results in impaired nerve conduction and paralysis. Relapsing and remitting EAE induced by injection of proteolipid protein (PLP) peptide in SJL/J mice provides a useful preclinical efficacy model of MS (see, e.g., Miller and Karpus (1996) “Experimental Autoimmune Encephalomyelitis in the Mouse” in Current Protocols in Immunology, Coligan et al. (eds.), John Wiley & Sons, Inc. and Sobel et al. (1990) “Acute experimental allergic encephalomyelitis in SJL/J mice induced by a synthetic peptide of myelin proteolipid protein” J Neuropathol Exp Neurol. 49(5):468-79).
FIG. 10 schematically illustrates progression of the disease over time after injection of the PLP peptide in this model. Injection at day 0 is followed by disease onset (days 0-15), remission (days 15-25), and relapse (day 25-termination of the study at days 60-70). […]
Numbers of effector/memory cells in the blood were determined by flow cytometry as follows. […]
To 1×10^6 cells, a saturating amount of fluorophore-conjugated antibodies were added and incubated on ice for 30 minutes, followed by washing with cold buffer. […] Samples were analyzed by flow cytometry on a FACSCalibur from BD Biosciences. […]

Compound: COc1c(C)c2c(c(O)c1C/C=C(\C)CCC(=O)OCCN1CCOCC1)C(=O)OC2 [MMF, 2-morpholinoethyl (E)-6-(1,3-dihydro-4-hydroxy-6-methoxy-7-methyl-3-oxo-5-isobenzofuranyl)-4-methyl-4-hexenoate]
- blood B2 B cell numbers ([1]; 25 mg/kg MMF, may not be statistically significant, FIG. 20B): increase
- proteinuria, multiple comparison analysis (Dunnett's method) vs control antibody ([1]; month 2 of treatment, MMF 50 or 25 mg/kg daily, FIG. 19): did not show statistically significant reduction in proteinuria
- capacity to reverse severe proteinuria (mice reversed from 300 mg/dl proteinuria) ([1]; one month of treatment, MMF 25 or 50 mg/kg daily IP, YTS177 5 mg/kg 3x/week, FIG. 17B): not sufficient to reverse severe proteinuria significantly
- mice exhibiting >300 mg/dl proteinuria (reversal of nephritis symptoms in very late stage disease) ([1]; over time after treatment, FIG. 17A): not observed

Compound: O=P1(N(CCCl)CCCl)NCCCO1 (stereo not drawn) [cyclophosphamide]
- mice exhibiting >300 mg/dl proteinuria (reversal of nephritis symptoms in very late stage disease) [2]: not observed

Compound: glatiramer acetate
- clinical score [3]: ineffective
